Values quoted from earlier work in US20230020217A1, “HEPES-CONTAINING MEDIUM” (AJINOMOTO CO., INC., priority 2020, published 2023).

Details: when exposed to light for a long time (Zigler et al. 1985)

Compound: O=S(=O)(O)CCN1CCN(CCO)CC1 [HEPES, 4-(2-hydroxyethyl)-1-piperazineethanesulfonic acid]
- toxicity: toxicity derived from hydrogen peroxide
